Experimental data as given in patent EP2724723A1, “Tegaserod for use in the treatment of nerve injuries” (Universitätsklinikum Hamburg-Eppendorf, priority 2012, dated 2014).

Tests used:
[1] = system: quadriceps muscle; experiment: Quadriceps muscle mass after femoral nerve injury; format: in vivo, C57BL/6J mice; conditions: 15 week recovery, control group 111 mg
Protocol: Tegaserod was evaluated in a 2 mm femoral nerve defect of 12-week old C57BL/6J mice as previously described in Mehanna et al. (2009), see above. Briefly, mice were anesthetized and the femoral nerve of the left rear leg exposed. The nerve was bis-sected 3 mm proximal to the branching of the saphenous and motor branches, and the nerve ends were sutured 0.5 mm into a 3 mm polyethylene conduits with 0.58 mm inner diameter (Becton Dickinson), leaving an overall gap length of 2 mm. Conduits were filled with PuraMatrix peptide hydrogel (Becton Dickinson 354250) using 2x PBS as the gelation stimulant. Tegaserod was dissolved in the 2x PBS at concentrations of 500 nM and 5,000 nM, resulting in final concentrations of 250 nM and 2,500 nM once the PBS was combined 1:1 v/v with the PuraMatrix.
The quadriceps muscle, which is solely innervated by the femoral nerve, was extracted from each mouse and weighed at the end of the 15 week recovery period. The quadriceps muscles were removed from the injured and uninjured hind limbs of the mice. The quadriceps femoris muscle was identified by first removing the skin overlying the cranial thigh. The muscle was bluntly dissected starting distally at the level of the patellar tendon, working proximally. […]

[2] = system: anti-PSA antibody 735; experiment: Competition ELISA: antibody 735 binding to immobilized PSA mimicking peptide
Protocol: To confirm that the compounds identified in the screening from Example 1 are indeed PSA mimetics, binding of tegaserod maleate ((E)-but-2-enedioic acid; 1-[[(Z)-(5-methoxyindol-3-ylidene) methyl]amino]-2-pentylguanidine; hereafter termed tegaserod) and the control compound nitrendipine (5-O-ethyl 3-O-methyl-2,6-dimethyl-4-(3-nitrophenyl)-1,4-dihydropyridine-3,5-dicarboxylate) to the PSA antibody 735 was analyzed by competition ELISA. 384-well flat bottom microtiter plates (Corning Life Sciences) were coated in triplicates with 25 µl of PSA mimicking peptide coupled to catalase (3 µg/ml) or PBS alone at 4°C overnight. All following steps were carried out at room temperature. After blocking with 1% BSA in PBS for 1 h, the wells were washed three times for 5 min with PBS containing 0.05% Tween-20 (PBST). Wells were incubated with increasing concentrations of tegaserod and nitrendipine, pre-incubated with anti-PSA antibody 735 (0.1 µg/ml) for 1 h. […] The reaction was stopped by addition of 50 µl 2.5 M H2SO4 and quantified using an ELISA reader (µQuant, Bio-TEK, Winooski, VT, USA) at 490 nm and the software KCjunior (Bio-TEK).

[3] = system: 735 anti PSA antibody; experiment: Screening ELISA of the NIH Clinical Collection 1 Library for organic PSA mimetics; format: binding; conditions: 10 µM of library compound pre-incubated with 735 antibody; repeated three times
Protocol: To identify organic PSA mimetics the NIH Clinical Collection 1 Library was screened. PSA mimicking peptide (NTHTDPYIYPIDC; Mehanna et al., (2009); Brain 132 (Pt 6): 1449-1462.) coupled to catalase (3 µg/ml; 25 µl/well) was immobilized on the surface of 384-well flat bottom microtiter plates with high binding surface (Corning Life Sciences, Amsterdam, The Netherlands). Wells were washed with […], blocked with 1% bovine serum albumin for 1 h at room temperature. 735 anti PSA antibody (0.1 µg/ml; 25 µl/well) was incubated with PBS, PBS containing DMSO solvent control or PBS containing 10 µM of the organic compounds from the library for 1 h at room temperature and then added to the wells coated with […] coupled to catalase. As control for positive competition, 735 antibody was incubated with the PSA mimicking peptide (10 µM). After incubation for 1 h, wells were washed 10 times with PBS containing 0.05% Tween-20 (PBST), HRP-coupled secondary antibody (1:5,000 in PBS) was added for 1 h and after 10 more washes with PBST, binding of antibody was visualized by incubating wells with 25 µl of 0.4 mg/ml o-phenylenediamine dihydrochloride (Thermo Scientific) for 15 min. The reaction was stopped by addition of 25 µl 2.5 M H2SO4 and quantified using an ELISA reader (EnVision with Plateworks software, Perkin Elmer, Hamburg, Germany). […]

[4] = system: murine motoneurons; experiment: In vitro neurite outgrowth of motoneurons; format: cell-based, C57BL/6J mice; conditions: tegaserod, cisapride, GR113808 100 nM; colominic acid 3 µM; PSA mimicking peptide 30 µM; Figure 2B
Protocol: (§1) Primary cultures of cerebellar neurons or Schwann cells were prepared from cerebellum or dorsal root ganglia of 7-day-old C57BL/6J mice as described in Mehanna et al. (2009), Brain, 132 (Pt 6): 1449-62 and Loers et al. (2005), J. Neurochem., 92(6): 1463-76. Motoneurons were prepared from E14 C57BL/6J mice as described in Simova et al. (2006), Ann. Neurol., 60(4): 430-437. In brief, 48-well plates were coated with 0.01% poly-L-lysine (PLL) or poly-L-ornithine (PLO) overnight at 4°C, washed twice with water and air-dried. Directly before use, plates were washed twice with PBS, and Schwann cells, cerebellar neurons (PLL) or motoneurons (PLO) were seeded at a density of 1.25 x 10^4 (Schwann cells and motoneurons) or 2.5 x 10^4 cells (cerebellar neurons) per well in 250 µl of corresponding serum-free culture medium. Soluble organic compounds were added to the culture 1 h after seeding in increasing concentrations. After maintenance for 24 h at 37°C, cells were fixed with 2.5% glutaraldehyde and stained with 1% methylene blue/toluidine blue in 1% borax. Morphological quantification of neurite or process lengths was performed as described in Mehanna et al. (2009), see above. Schwann cell processes and neurites of cerebellar neurons with a length of at least one cell body diameter were counted and total neurite or process length per cell was determined by counting 50 cells in each of two wells per experiment. At least three independent experiments were performed for each culture. Also, the activity of tegaserod with the PSA peptide mimic and the bacterial PSA analogue, colominic acid, on neurite and process extension experiments was compared.

[5] = system: Schwann cells; experiment: In vitro process outgrowth of Schwann cells; format: cell-based, C57BL/6J mice; conditions: compared to control; Figure 2C, D
Protocol: as §1, with “After maintenance for 24 h at 37°C, cells were fixed with 2.5% glutaraldehyde and stained with 1% methylene blue/toluidine blue in 1% borax.” left out, “At least three independent experiments were performed for each culture. Also, the activity of tegaserod with the PSA peptide mimic and the bacterial PSA analogue, colominic acid, on neurite and process extension experiments was compared.” left out

SMILES: [H]/N=C(/NCCCCC)N/N=C/c1c[nH]c2ccc(OC)cc12 [tegaserod, (E)-but-2-enedioic acid; 1-[[(Z)-(5-methoxyindol-3-ylidene)methyl]amino]-2-pentylguanidine]
- average quadriceps muscle mass, injured limb ([1]; 250 nM, non-injured legs 208 mg): 165 mg
- quadriceps muscle mass, injured limb ([1]; 2,500 nM, failed to reach statistical significance): 127 mg
- concentration of maximal inhibition of binding of mAb 735 with the PSA peptide mimic ([2]; competition ELISA, Figure 1A): approximately 100 nM
- inhibition of binding of mAb 735 with the PSA peptide mimic (in words) ([2]; increasing concentrations, pre-incubated with antibody 735 (0.1 µg/ml) for 1 h): inhibit binding of mAb 735 with the PSA peptide mimic in a dose dependent manner
- identification as organic compound that could potentially mimic PSA [3]: could potentially mimic PSA
- effect on neurite extension of murine motoneurons (in words) [4]: significant stimulatory effect
- effect on process outgrowth of Schwann cells (in words) [5]: significantly enhance neurite/process outgrowth compared to control
